The text below walks through data of patent US20110151484A1, “hERG MUTANTS AND USES THEREOF” (priority 2008, published 2011).

The target of one series is WT-hERG (Homo sapiens, UniProt Q12809). The procedure: (§1) CHO cells were cultured in D-ME/F12 with 10% FBS and maintained at 37° C. in 5% CO2. Cells were studied at least 24 h after being plated on microscope coverslips. Mutant hERG constructs were generated using the Megaprimer PCR method. […] Blank CHO cells were plated onto sterilised glass coverslips. After 24 h, the cells were transfected with mutant hERG constructs using PolyFect Transfection Reagent (Qiagen) according to the manufacturer's instructions. After transfection, the cells were incubated at 37° C. for a minimum of 1 day prior to electrophysiological study. Successfully transfected cells, identified by the expression of eGFP, were studied using the whole-cell configuration of the patch clamp technique.
(§2) Borosilicate glass tubing patch pipettes, with resistances of 1-4 MΩ when filled with internal solution, were made using a vertical 2-stage puller (PP-830; Narishige, Japan). The internal solution contained (in mM) 120 potassium gluconate, 20 KCl, 1.5 MgATP, 5 EGTA and 10 HEPES (pH 7.3 with KOH). […] Currents were amplified (Axopatch 200B amplifier; Molecular Devices, Sunnyvale, Calif.) and digitised (DigiData 1200; Molecular Devices) before storage on a personal computer. Capacitance current transients were electronically subtracted, and series resistance compensation was ˜80% for all experiments. Current signals were digitised at 5 kHz and low-pass filtered at 2 KHz. Some current traces were leak-subtracted off-line. Acquisition was performed using pClamp software.
(§3) Currents were measured with a two-step voltage protocol; a first step to +20 mV for 3 seconds to fully activate the channels and a second step to a negative membrane potential, usually −110 mV (but see below for variations). During this second voltage step hERG channels quickly recover from inactivation and proceed to deactivate.
(§4) Drug block was calculated as I[drug]/Icontrol, with all currents measured at the end of the activating step. […] In this way current was measured at the same time point for all cells.
(§5) Voltage-protocols were repeated at 0.1 Hz. Control currents were recorded 3-5 minutes after patch rupture, i.e. the time take for current levels to stabilise at a steady state level. […] Recording continued until a new steady state block was reached (typically 2-4 minutes). Between 2 and 4 doses of drug were applied to each cell with most experiments completed within 20 minutes.
(§6) Initial data analysis was performed using the Clampfit module of the pClamp 9.0 software. Subsequent data analysis and preparation of data for figures were performed with Mathematica 6 (Wolfram Technologies). All data are expressed as mean ±SEM (n) and statistical significance (P<0.05) was determined using paired t-tests.

The target of a further series is N588E-hERG (Homo sapiens, UniProt Q12809, N588E). The procedure:
as §1, §2, §3, §4, §5, §6

For the next series, the target named is N588K-hERG (Homo sapiens, UniProt Q12809, N588K).

What is called IC50 is the midpoint of a concentration-inhibition curve. Higher therefore signals weaker potency in that assay.

Read-outs that look alike come from different tables or passages of the source.

Turning to `CC(C)NCC(O)c1ccc(NS(C)(=O)=O)cc1` (racemic) [dl-Sotalol], the IC50 on WT-hERG is 516 ± 35.5 µM; at N588E-hERG it was 586 ± 179 µM; on N588K-hERG, 1390 ± 266 µM. Also, at WT-hERG, the “h (Hill plot), WT-hERG” value is given as “h = 0.9”. For the same compound, the “h (Hill plot), N588E” value on N588E-hERG is “h = 0.8”.

Take `COc1cc(N)c(Cl)cc1C(=O)NC1CCN(CCCOc2ccc(F)cc2)CC1OC` (stereo not drawn) [Cisapride]: the “h (Hill plot), WT-hERG” value on WT-hERG (human) is reported as “h = 1.0”. Moreover, at N588E-hERG (human), the “h (Hill plot), N588E” value is listed as “h = 0.8”.

Turning to `C1CCC(C(CC2CCCCN2)C2CCCCC2)CC1` (stereo not drawn) [Perhexiline], the “h (Hill plot), WT-hERG” value at WT-hERG (human) is recorded as “h = 1.1”. Further, the “h (Hill plot), N588E” value at N588E-hERG (human) is recorded as “h = 0.8”.
